Laboratory results reported in patent US4308251A, “Controlled release formulations of orally-active medicaments” (Boots Pharmaceuticals, Inc., priority 1980, dated 1981).

Legend:
[1] = tested on: patients with pain (chronic bursitis, knee injury); assay type: in vivo, human
From the text: patient two is a housewife who suffered a painful right shoulder for two years. Consultants believed this condition was a result of chronic bursitis.
patient three is a person who is employed full time in an accounting department of a small company. […] While skating they fell, causing a partial tear of the medial collateral ligament and medial meniscus of the left knee. Support wrappings and acetaminophen were tried. […] This dosage regimen was maintained throughout the patient's convalescence.
patient one sustained a traumatic injury to the medial portion of their right knee during a basketball game.

patients taking aspirin = details: background statement; cited from earlier work
[2] = Patient No. 1, aspirin as regularly prescribed

Structure (SMILES) | pain relief ([1]; Patient No. 2, regular acetaminophen) | effect on shoulder pain [1, 2] | side effects [1, 2] | patients considered treatment failures because of side effects (patients taking aspirin)
CC(=O)Nc1ccc(O)cc1 [acetaminophen] | only partial and temporary | – | – | –
CC(=O)Oc1ccccc1C(=O)O [aspirin, acetylsalicylic acid] | – | ineffective | epigastric discomfort | Approximately sixty
